Measured values: patent US7723328B2, “Methods of facilitating cell survival using neurotrophin mimetics” (The University of North Carolina at Chapel Hill, priority 2005, dated 2010)
Entries after “also recorded” stand apart in the source; their conditions may differ.

Key:
NFκB-p65 = NFκB-p65 phosphorylation western blot in hippocampal cultures; type: cell-based, mouse; details: 20 nM
Experimental: For assays of Trk, AKT, NFκB, and ERK activation, hippocampal neurons derived from E16-17 mice were cultured in poly-L-lysine coated six-well plates (Corning, Inc., Corning, N.Y., United States of America) in DMEM containing 10% FBS, followed by incubation in serum-free DMEM for 2 hours before addition of neurotrophins or compounds. At the indicated time points, neurons were harvested in lysis buffer consisting of: 20 mM Tris, pH 8.0, 137 mM NaCl, 1% Igepal CA-630, 10% glycerol, 1 mM PMSF, 10 μg/ml aprotinin, 1 μg/ml leupeptin, 500 μM orthovanadate (Zhou, J., Valletta, J. S., Grimes, M. L., Mobley, W. C. (1995) J Neurochem 65, 1146-1156).
(§1) Lysates were centrifuged, the supernatant collected, and protein concentrations determined using the BCA Protein Assay Reagent obtained from Pierce (Rockford, Ill., United States of America). Western blots were performed as described previously (Yang, T. et al. (2003) J Neurosci 23, 3353-3363). Western blot signals were detected using the ECL Chemiluminescence System obtained by Amersham (Piscataway, N.J., United States of America) (Yang, T. et al. (2003) J Neurosci 23, 3353-3363).

[1] = tested on: E16-17 mouse hippocampal neurons; assay: Hippocampal neuron survival (morphology plus MTT conversion); type: cell-based
Experimental: (§2) Hippocampal neurons were prepared from E16-17 mouse embryos as previously described (Yang. T. et al. (2003) J Neurosci 23, 3353-3363). […] For studies employing p75^NTR+/+ and p75^NTR−/− neurons, mice carrying a mutation in exon 3 of the p75^NTR gene (Lee, K. F. et al. (1992) Cell 69, 737-749) were bred onto a B6 congenic background (>10 B6 backcrosses).
(§3) After 48 hours in culture, cell survival was assessed as previously described (Longo, F. M., Manthorpe. M., Xie. Y. M., Varon, S. (1997) J Neurosci Res 48, 1-17) using a combination of standard morphological criteria along with visual determination of whether a given cell converted MTT to its blue formazan product. The number of surviving neurons was determined by counting the total number of cells in each well that were both morphologically intact and filed with blue product (Longo F. M., Manthorpe. M., Xie, Y. M., Varon, S. (1997) J Neurosci Res 48, 1-17). For each neurotrophin or compound concentration, duplicate wells were counted and the resulting values averaged. Activity of each compound was confirmed by blinded counts. Counts were normalized to survival achieved with 25 ng/ml BDNF or to baseline survival. Fitting of dose-responsive curves was performed with Sigmaplot obtained from SYSTAT Software Inc. (Richmond, Calif., United States of America).

[2] = Preliminary studies of oral uptake and blood-brain barrier penetration; type: in vivo
TrkA-Fc = assay: NGF/TrkA-Fc binding by NGF ELISA; details: up to 10,000 nM compound
Experimental: (§4) Briefly, 96-well plates were incubated with 0.1 pmol (at 1 nM) of p75/Fc or TrkA/Fc recombinant protein obtained from R&D System (Minneapolis, Minn., United States of America) overnight at 4° C. followed by incubation with blocking buffer for 1 hour at room temperature. […] Plates were then washed five times with Tris-buffered saline (TBS) containing 0.05% Tween-20 and incubated with anti-NGF rabbit polyclonal antibody overnight at 4° C. Following five washes with TBS, wells were incubated for 2.5 hours at room temperature with anti-rabbit IgG HRP conjugate and washed five times. 3,3′,5,5′-tetramethyl-benzidine substrate was added and the optical density measured at 450 nm.

hippocampal neurons = assay: Hippocampal neuron survival with signaling pathway inhibitors; type: cell-based, mouse; details: BDNF/NGF 25 ng/ml, compounds 5 nM, 48 h
Experimental: as §2, §3
For all studies applying signaling inhibitors, p75^NTR antibodies or p75^NTR−/− neurons, survival was assessed at 48 hours.

[3] = Age-related hair loss in middle-aged male mice; type: in vivo
p75^NTR-Fc = target: T1, p75^NTR-Fc (Homo sapiens, UniProt P08138); assay: NGF/p75NTR-Fc binding by NGF ELISA, Gaddum/Schild fit
T1 construct: purchased R&D Systems
Experimental: as §4
A regression analysis of NGF-p75^NTR binding in the presence of the p75-binding compounds was performed. The data was fit using the Nonlinear Regression module of Sigmaplot, to a modification of the Gaddum/Schild equation (adapted from Motulsky, H. J., and Christopoulos. A. (2003) A Practical Guide to Curve Fitting, 2nd edn. (San Diego, Calif., GraphPad Software, Inc.): […]

TrkA = target: T2, TrkA (Homo sapiens, UniProt P04629); assay: Trk Y490 phosphorylation western blot in TrkA-expressing 3T3 cells; type: cell-based
T2 construct: expressed in transfected cells; host or cells: 3T3 cells (3T3-TrkA)
Experimental: as §1

mature oligodendrocytes = assay: Oligodendrocyte cell death assay (MBP/TUNEL) with or without proNGF; type: cell-based, rat; details: 24 h
Experimental: Cortical oligondendrocytes from rat pups were prepared as previously described (Yoon et al. (1998) J Neurosci 18, 3273-3281, Harrington, A. W., Kim, J. Y., Yoon, S. O. (2002) J Neurosci 22, 156-166). Cells were treated with recombinant, cleavage-resistant proNGF at 0.05 nM (2.8 ng/ml). Controls were treated with equivalent volumes of proNGF purification buffer containing 350 mM imidazole. 24 hours after treatment, the cells were fixed and processed for MBP and TUNEL staining as previously described (Beattie, M. S. et al. (2002) Neuron 36, 375-386). 200-250 cells were counted per well, for a minimum of 600 cells per experimental condition.

T1 sequence (P08138 with tags, fused parts or gaps limits assumed): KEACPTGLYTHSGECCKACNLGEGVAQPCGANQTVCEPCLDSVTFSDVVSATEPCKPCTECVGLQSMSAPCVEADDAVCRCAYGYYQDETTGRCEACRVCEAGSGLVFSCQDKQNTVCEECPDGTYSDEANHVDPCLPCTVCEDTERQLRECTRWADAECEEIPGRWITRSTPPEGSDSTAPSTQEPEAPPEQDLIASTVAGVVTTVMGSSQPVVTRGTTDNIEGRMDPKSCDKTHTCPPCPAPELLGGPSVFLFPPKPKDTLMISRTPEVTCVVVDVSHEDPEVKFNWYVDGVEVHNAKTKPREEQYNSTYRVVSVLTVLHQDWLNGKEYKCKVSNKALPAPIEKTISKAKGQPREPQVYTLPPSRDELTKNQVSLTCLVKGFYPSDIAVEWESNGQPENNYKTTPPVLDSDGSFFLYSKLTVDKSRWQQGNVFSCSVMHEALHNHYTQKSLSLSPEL
T2 sequence (P04629 33-796, species assumed): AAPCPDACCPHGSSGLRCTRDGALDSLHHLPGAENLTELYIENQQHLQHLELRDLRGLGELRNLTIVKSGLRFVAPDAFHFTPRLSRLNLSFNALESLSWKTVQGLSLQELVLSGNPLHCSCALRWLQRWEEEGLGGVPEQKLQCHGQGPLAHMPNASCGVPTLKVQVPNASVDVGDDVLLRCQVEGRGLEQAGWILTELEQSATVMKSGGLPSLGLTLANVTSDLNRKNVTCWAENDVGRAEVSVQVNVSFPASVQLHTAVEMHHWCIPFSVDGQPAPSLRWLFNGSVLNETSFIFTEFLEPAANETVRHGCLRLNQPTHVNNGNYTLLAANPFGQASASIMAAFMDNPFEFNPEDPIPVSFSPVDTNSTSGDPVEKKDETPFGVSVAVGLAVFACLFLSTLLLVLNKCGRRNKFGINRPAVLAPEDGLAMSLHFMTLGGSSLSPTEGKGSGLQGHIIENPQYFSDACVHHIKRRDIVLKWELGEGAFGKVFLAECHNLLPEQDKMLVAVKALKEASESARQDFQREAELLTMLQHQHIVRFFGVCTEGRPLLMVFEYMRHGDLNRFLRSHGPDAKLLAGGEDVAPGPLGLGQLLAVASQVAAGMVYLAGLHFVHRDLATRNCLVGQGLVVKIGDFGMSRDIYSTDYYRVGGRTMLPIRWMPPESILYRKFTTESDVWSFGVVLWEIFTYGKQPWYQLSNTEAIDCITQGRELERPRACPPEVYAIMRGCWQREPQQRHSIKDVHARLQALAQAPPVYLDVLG

blood-brain barrier penetration [2]: blood-brain barrier penetration
oral uptake [2]: significant oral uptake
A2 relative to EC50 of biologic effect (p75^NTR-Fc): nearly four orders of magnitude greater
compound concentration at which binding curve differs from 0 nM curve (P<0.0001) (p75^NTR-Fc; ANOVA with post-hoc Bonferroni/Dunn): ≥ 500 nM
Schild coefficient (p75^NTR-Fc; Gaddum-Schild fit): 0.58 +/−0.04
shift of the NGF/p75NTR-Fc binding curve (p75^NTR-Fc; increasing compound concentrations): significantly to the right
TrkA activation (Trk Y490 phosphorylation) (TrkA): no detectable activation
Compound: CCC(C)C(N)C(=O)NCCN1CCOCC1 (stereo not drawn) [Compound 4]
increase in NFκB-p65 phosphorylation (NFκB-p65): approximately 1.5 fold
additive effect on survival with NGF ([1]; 5 nM compound along with 50 ng/ml NGF): no additive effect on survival
EC50 ([1]; Mus musculus, Hippocampal neuron, dose-response, FIG. 2b, read-out: EC50 of survival-promoting (biologic) effect): ~150 pM
effect on NGF binding to TrkA-Fc (TrkA-Fc): did not affect; also recorded: no compound effects up to 10,000 nM
effect of PD98059 (ERK inhibitor) on survival promoted by the substance (hippocampal neurons; PD98059 50 μM): no significant decrease
effect of SN50 (NFκB translocation inhibitor) on survival promoted by the substance (hippocampal neurons; SN50 2.5 μg/ml): significantly reduced
mice with hair loss, studies taken together ([3]; both studies pooled, p 0.001 Fisher's Exact test vs vehicle): 0 of 14
mice with hair loss ([3]; follow up study, middle-aged male mice, 2-month time point): 0 of 9
mice with age-related hair loss ([3]; three-month toxicology trial, male mice): 0 of 5
inhibition of proNGF-induced oligodendrocyte death (mature oligodendrocytes; 2.8 ng/ml (0.05 nM) proNGF): significantly inhibited; also recorded: blocked cell death
promotion of oligodendrocyte cell death by compound alone (mature oligodendrocytes; absence of proNGF): did not promote cell death
